Laboratory results taken from ChEMBL document CHEMBL5154761, “Design, synthesis, and evaluation of 9-(pyrimidin-2-yl)-9H-carbazole derivatives disrupting mitochondrial homeostasis in human lung adenocarcinoma” (Eur J Med Chem, 2022).
Calls of active or inactive are those of the source. The rule behind the calls is not given here.

Key:
[1] = test system: A549; assay: Cytotoxicity against human A549 cells assessed as cell growth inhibition incubated for 48 hrs by MTT assay; assay type: functional, cell-based; conditions: A549, 48 h
[2] = test system: A549; assay: Cytotoxicity against human A549 cells assessed as cell growth inhibition at 10 uM incubated for 48 hrs by MTT assay relative to control; assay type: functional
[3] = test system: A549; assay: Induction of cell cycle arrest in human A549 cells assessed as accumulation at G2/M phase at 10 uM incubated for 48 hrs by PI staining based flow cytometry analysis; assay type: functional

**Q.** `O=C(c1ccc(O)c(O)c1)c1cccc2c3ccccc3n(-c3ncccn3)c12` was tested. Which IC50 [1] did it give?
**A.** 8.86 µM

**Q.** What about the inhibition at 10 µM [2] of the same molecule?
**A.** 50%

**Q.** Which Activity [3] does the source give for `O=C(c1ccccc1)c1cccc2c3ccccc3n(-c3ncccn3)c12` here?
**A.** Active

**Q.** And the IC50 [1]?
**A.** 5.32 µM

**Q.** What about the inhibition at 10 µM [2] of the same molecule?
**A.** 50%

**Q.** For `O=C(c1ccco1)c1cccc2c3ccccc3n(-c3ncccn3)c12`, which Activity [3] is on record?
**A.** Active

**Q.** What about the IC50 [1] of the same molecule?
**A.** 14.9 µM

**Q.** And the inhibition at 10 µM [2]?
**A.** 50%

**Q.** `O=C(c1ccccc1Cl)c1cccc2c3ccccc3n(-c3ncccn3)c12` was tested. Which Activity [3] did it give?
**A.** Active

**Q.** What about the IC50 [1] of the same molecule?
**A.** 6.84 µM

**Q.** What about the inhibition at 10 µM [2] of the same molecule?
**A.** 50%

**Q.** Which results are given for `O=C(c1ccc(I)cc1)c1cccc2c3ccccc3n(-c3ncccn3)c12`?
**A.** Activity [3]: Active; IC50 [1]: 12.5 µM
